Measurements reported in US20160074291A1, “ANTI-AGING SKIN CARE COMPOSITIONS AND REGIMENS” (The Procter & Gamble Company, priority 2014, published 2016).

Experiments:
[1] = system: skin barrier formation; experiment: Eigengene analysis of younger-appearance genes, skin barrier; format: cell-based; settings: cultured human keratinocytes
[2] = system: "Clear and Detox" module genes; experiment: Eigengene analysis of "Clear and Detox" co-expression module; settings: FIG. 8
[3] = system: "Repair and Rebuild" associated genes; experiment: Eigengene analysis of "Repair and Rebuild" co-expression module; settings: 301 genes, FIG. 9

Substance | effects relating to successful aging in skin barrier formation [1] | effect on "Clear and Detox" eigengene [2] | effect on "Repair and Rebuild" eigengene [3]
palmitoyl-lysine-threonine [Pal-KT] | Effects relating to successful aging were also identified | significantly up-regulates | 
palmitoyl-lysine-threonine-threonine-lysine-serine [Pal-KTTKS] |  |  | significantly up-regulate
